Results from publication PMC7145288, “New Peptide-Based Pharmacophore Activates 20S Proteasome” (Molecules, 2020).
Square brackets hold non-standard residues; d marks the D form. Peptide text beside a SMILES is read from it. Oic = O=C(O)[C@@H]1C[C@@H]2CCCC[C@@H]2N1; dOic = O=C(O)[C@H]1C[C@H]2CCCC[C@H]2N1; Tic = O=C(O)[C@@H]1Cc2ccccc2CN1

What was measured:
[1] = test system: proteasome ChT-L activity in SK-N-SH (ATCC HTB-11) cell lysates; test: ChT-L proteasome activity in lysates of treated SK-N-SH cells; type: cell-based, human
Protocol: […] The content of live cells was determined by the Trypan Blue-exclusion assay. The cells were harvested, washed twice in PBS, resuspended in dilution buffer (see above) and stored in −80 °C. To prepare lysates the thawed preparations were vortexed with glass beads and centrifuged for 5 min 5000× g (4 °C). The supernatant was centrifuged for 20 min 14,000× g (4 °C). The resulting supernatant—“crude lysate” was diluted to 1 mg/mL of total protein with dilution buffer. 1 μg of lysate per assay (reaction buffer: 50 mM Tris/HCl pH 8, 0.1 mM MgCl2, 0.2 mM ATP, 0.1 mM dithiothreitol, 50 μM Suc-LLVY-AMC) was used for determination of ChT-L activity in a 96-well format, as above.

[2] = test system: 20S core proteasome α face pockets; test: Competition with Rpt C-terminal tail peptides for α face pockets (ChT-L activity); type: biochemical, human; conditions: Rpt peptide 1 μM added before TAT peptide; for Competition with Rpt tail peptides (in words, from radar plot scores): Rpt2 α3/α4, Rpt3 α1/α2, Rpt5 α5/α6, Rpt6 α2/α3 pocket, three to six experiments; for Enhanced (synergistic) activation with Rpt tail peptides (in words): Rpt5 or Rpt6 tails
Excerpt: As mentioned above, the binding pockets on the α face accept “anchors” from natural protein ligands of the 20S core. […] The 10-residue Rpt-derived C-terminal “tail” peptides (“Rpt peptides”) can be used as competitors with the Rpt subunits or with small allosteric ligands. Importantly, the Rpt peptides interject between the subunits with their C-termini, whereas TAT peptides, according to the modeling, use their N-termini for this purpose. To test the specificity of interactions between TAT compounds and the α face, we performed competition experiments. The 20S core was challenged with selected TAT compounds after treatment with Rpt peptides. We selected peptides of Rpt2 ([…]), Rpt3 ([…]), Rpt5 ([…]) and Rpt6 […]) subunits, docking in α3/α4, α1/α2, α5/α6 and α2/α3 pockets, respectively. Tails of Rpt2, 3, and 5 display the canonical HbYX motif, whereas the LeuTrpLys C-terminus of Rpt6 may be considered “pseudo-HbYX”, with a bulky Trp replacing Tyr. Results of the competition experiments are presented as radar plots in Figure 7. […] This pocket also emerged as the major binding site for (1) and (8). However, these compounds likely weakly competed with the Rpt2 tail for binding to the α3/α4 pocket as well. The α3/α4 pocket seemed to be favored by (6). […] These complex patterns point at the importance of allosteric effects between the α face ligands, the gate and the catalytic chamber.
Figure 7 TAT1 derivatives competed with selected C-terminal tails of Rpt (Regulatory Particle ATPases) subunits for binding to specific α face pockets. The scores presented in radar plots were calculated as ((relative activation by the [x] and Rpt tail)-(theoretical sum of activation by [x] and Rpt tail))/(theoretical sum of activation by [x] and Rpt tail), where [x] represent any TAT peptide. […] The positive scores for combinations of selected compounds with Rpt5 or Rpt6 tails indicated a presumed synergy in activation of the core. Average scores derived from three to six experiments are presented. The competition effects were statistically significant (at least p < 0.05) for Rpt3 peptide and (1) and (8), as well as for Rpt2 peptide and (6).
Human housekeeping core (20S) proteasome purified from erythrocytes was purchased from Boston Biochem, Inc. (Cambridge, MA) or from Enzo Life Sciences, Inc. (Farmingdale, NY). Multiple batches of the proteasomes were used and performed reproducibly. The stock proteasome was diluted to 0.2 mg/mL working solution in “dilution buffer” (50 mM Tris/HCl, pH 8, 20% glycerol). The following model peptide substrates, all releasing fluorescent 7-amino-4-methylcoumarin (AMC) reporter group after cleavage, were used: succinyl-LeuLeuValTyr-AMC (for the ChT-L peptidase; SucLLVY-AMC; Bachem Bioscience Inc., Philadelphia, PA), butoxycarbonyl-LeuArgArg-AMC (T-L; Bachem Bioscience Inc., Philadelphia, PA) and carbobenzoxy- LeuLeuGlu-AMC (PGPH; Enzo Life Sciences Inc., Farmingdale, NY). The substrates were used at concentration of 50 μM (ChT-L) or 100 μM (T-L, PGPH). Free AMC (Sigma-Aldrich, St. Louis, MO) was used as the standard. The C-terminal peptides derived from Rpt2, Rpt3, Rpt5 and Rpt6 were synthesized (standard solid-phase peptide chemistry) and purified to at least 98% purity by GenScript (Piscataway, NJ). The TAT peptides, Rpt peptides (except Rpt6) and the peptide substrates were dissolved in anhydrous dimethylsulfoxide (DMSO; Sigma-Aldrich, St. Louis, MO) and such stock solutions were stored at −20 °C. The total concentration of DMSO in final reaction mixtures never exceeded 3% (vol/vol). The Trp (tryptophan) -containing Rpt6 peptide was dissolved in ultrapure water and stored at −20 °C, protected from light. […]

[3] = molecular target: T1, human latent 20S core proteasome, chymotrypsin-like (ChT-L) activity (Homo sapiens, UniProt P25787+P60900); test: ChT-L peptidase activity of latent 20S proteasome (Suc-LLVY-AMC); type: biochemical; conditions: for Max Activation Fold ± SE: purified latent 20S, Tris/HCl pH 8, 50 μM Suc-LLVY-AMC, 37 °C, from fitted response curves, SEM
T1 construct: Human housekeeping core (20S) proteasome purified from erythrocytes; purchased Boston Biochem, Inc. or Enzo Life Sciences, Inc; host or cells: human erythrocytes (natural source)
Protocol: The stock proteasome was diluted to 0.2 mg/mL working solution in “dilution buffer” (50 mM Tris/HCl, pH 8, 20% glycerol). […] The substrates were used at concentration of 50 μM (ChT-L) or 100 μM (T-L, PGPH). […] The total concentration of DMSO in final reaction mixtures never exceeded 3% (vol/vol). […] The reaction was carried out in 96-well plates, in 100 μL of reaction mixture that consisted of 45 mM Tris/HCl, pH 8, 100 mM KCl, 1 mM EDTA (reaction buffer) and a fluorogenic peptide substrate, to which 200 ng (nearly […]) of proteasome were added. […] The proteasome was preincubated with a substrate for 10 min at room temperature, then 1 μL of DMSO or a desired concentration of a TAT peptide in 1 μL of DMSO were added. […] To test the competition with Rpt derived peptides, the Rpt peptide (1 μM) was added before the TAT peptide to the reaction mixture. The reaction rates were calculated from a linear segment of kinetic curves constructed from measurements in 1-min intervals.
A two-tailed t-test was applied to compare the means. The comparisons were allowing for unequal variances with a Welch correction. Abundance of proteasome conformers was compared with the chi squared test and two-sample proportion test. A significance level was set at 0.05. […] Reaction rates were calculated from a smoothed linear segment of kinetic traces using OriginPro 2019. Response curves (activity vs. compound concentration) were fitted with a nonlinear fitting application of OriginPro 2019. The AC50 and maximum activation fold was calculated based on the equations implemented to fit the response curves.

Row | SMILES | Abolition of ChT-L activity in cell lysates ([1]; 1 µM bortezomib added to lysates from control and TAT-exposed SK-N-SH cells) | Competition with Rpt tail peptides (in words, from radar plot scores) [2] | Enhanced (synergistic) activation with Rpt tail peptides (in words) [2] | Proteasome ChT-L activity in lysates of treated cells versus control lysates (in words) ([1]; SK-N-SH cells, 1 µM peptide, 24 h, 1 μg lysate, 50 μM Suc-LLVY-AMC, n = 3–4) | Max Activation Fold ± SE [3] | Ability to activate ChT-L activity of latent 20S (in words) ([3]; titration, latent human 20S, Suc-LLVY-AMC, n = 3–8)
1 | CC(C)C[C@H](NC(=O)[C@H](Cc1ccccc1)NC(=O)c1cnccn1)B(O)O [bortezomib, reference compound] | > 85% | – | – | – | – | –
2 | N=C(N)NCCC[C@H](NC(=O)CN)C(=O)N[C@@H](CCCCN)C(=O)N[C@@H](CCCCN)C(=O)N[C@@H](CCCNC(=N)N)C(=O)N[C@@H](CCCNC(=N)N)C(=O)N[C@@H](CCC(N)=O)C(=O)N[C@@H](CCCNC(=N)N)C(=O)N[C@@H](CCCNC(=N)N)C(=O)N[C@@H](CCCNC(=N)N)C(=O)N1CCC[C@H]1C(=O)N[C@@H](CO)C(=O)O [(1)] | – | added a weakly negative score for the Rpt2 tail to the presumed major competitor Rpt3 | enhanced activation in the presence of one of Rpt tails, namely Rpt5 or Rpt6 | lack of significant activation | – | –
3 | N=C(N)NCCC[C@H](NC(=O)CN)C(=O)N[C@@H](CCCCN)C(=O)N1Cc2ccccc2C[C@H]1C(=O)N1[C@H](C(=O)N[C@@H](CCCNC(=N)N)C(=O)N[C@@H](CCC(N)=O)C(=O)N[C@@H](CCCNC(=N)N)C(=O)N[C@@H](CCCNC(=N)N)C(=O)N[C@@H](CCCNC(=N)N)C(=O)N2CCC[C@H]2C(=O)N[C@@H](CO)C(=O)O)C[C@@H]2CCCC[C@@H]21 [(3)] (H-GRK[Tic][Oic]RQRRRPS-OH; N-terminus and C-terminus assumed) | – | – | – | – | 3.3 ± 0.23 fold | –
4 | N=C(N)NCCC[C@H](NC(=O)CN)C(=O)N[C@@H](CCCCN)C(=O)N1Cc2ccccc2C[C@H]1C(=O)N1[C@H](C(=O)N[C@@H](CCCNC(=N)N)C(=O)N[C@@H](CCC(N)=O)C(=O)N2Cc3ccccc3C[C@H]2C(=O)N2[C@@H](C(=O)N[C@@H](CCCNC(=N)N)C(=O)N3CCC[C@H]3C(=O)N[C@@H](CO)C(=O)O)C[C@H]3CCCC[C@H]32)C[C@@H]2CCCC[C@@H]21 [(2)] (H-GRK[Tic][Oic]RQ[Tic][dOic]RPS-OH; N-terminus and C-terminus assumed) | – | competing with Rpt2, Rpt3, and Rpt5 tails | synergy was especially pronounced for the Rpt6-(2) pair | – | 1.5 ± 0.26 fold | very poor activator
5 | NCCCC[C@H](NC(=O)[C@H](CCCCN)NC(=O)[C@H](CCCCN)NC(=O)[C@@H]1C[C@@H]2CCCC[C@@H]2N1C(=O)[C@@H]1Cc2ccccc2CN1C(=O)[C@H](CCCCN)NC(=O)[C@H](CCCCN)NC(=O)[C@@H](N)CCCCN)C(=O)O [(6)] | – | Rpt2 tail was a major competitor | enhanced activation in the presence of one of Rpt tails, namely Rpt5 or Rpt6 | – | – | –
